ChEMBL document CHEMBL5233237, “Agonist and antagonist ligands of toll-like receptors 7 and 8: Ingenious tools for therapeutic purposes” (Eur J Med Chem, 2020)
Each block holds one compound with its values, some of them ahead of it.

Columns and labels:
B16 = assay: Antitumor activity against mouse B16 cells xenografted in mouse assessed as inhibition of tumor growth at 2 mg measured after 3 days; format: functional; design: scale not given: the % may be the effect or the level left; settings: time 3 day
[1] = molecular target: Mitogen-activated protein kinase 3 (Homo sapiens, UniProt P27361); assay: Binding affinity to ERK1 (unknown origin) by surface plasmon resonance assay
Sequence of Mitogen-activated protein kinase 3 (P27361 whole entry): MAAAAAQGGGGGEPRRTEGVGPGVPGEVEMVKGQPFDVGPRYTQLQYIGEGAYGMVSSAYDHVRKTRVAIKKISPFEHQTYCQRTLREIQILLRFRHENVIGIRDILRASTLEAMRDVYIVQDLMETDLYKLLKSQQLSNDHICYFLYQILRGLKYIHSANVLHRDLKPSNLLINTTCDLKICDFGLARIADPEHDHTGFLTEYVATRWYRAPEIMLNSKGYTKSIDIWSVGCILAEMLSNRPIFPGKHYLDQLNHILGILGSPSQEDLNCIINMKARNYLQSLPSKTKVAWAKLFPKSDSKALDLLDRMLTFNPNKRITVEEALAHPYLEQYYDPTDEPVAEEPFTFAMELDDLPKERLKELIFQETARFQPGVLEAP

[2] = Binding affinity to RasGAP (unknown origin) by surface plasmon resonance assay; design: species or system Homo sapiens
Mus musculus = assay: Potency index ratio of imiquimod MED to test compound MED for induction of IFN in po dosed mouse assessed as minimum effective dose; format: functional
Hepatitis C virus = assay: Antiviral activity against HCV infected in human Huh-7 cells assessed as reduction in HCV level at 1 to 10 uM measured after 24 h by real-time PCR method; design: scale not given: the % may be the effect or the level left; settings: dose 1-10 µM
Toll-like receptor 8 [3] = molecular target: T1, Toll-like receptor 8 (Homo sapiens, UniProt Q9NR97); assay: (§1) Agonist activity at human TLR8
T1 sequence (Q9NR97 whole entry): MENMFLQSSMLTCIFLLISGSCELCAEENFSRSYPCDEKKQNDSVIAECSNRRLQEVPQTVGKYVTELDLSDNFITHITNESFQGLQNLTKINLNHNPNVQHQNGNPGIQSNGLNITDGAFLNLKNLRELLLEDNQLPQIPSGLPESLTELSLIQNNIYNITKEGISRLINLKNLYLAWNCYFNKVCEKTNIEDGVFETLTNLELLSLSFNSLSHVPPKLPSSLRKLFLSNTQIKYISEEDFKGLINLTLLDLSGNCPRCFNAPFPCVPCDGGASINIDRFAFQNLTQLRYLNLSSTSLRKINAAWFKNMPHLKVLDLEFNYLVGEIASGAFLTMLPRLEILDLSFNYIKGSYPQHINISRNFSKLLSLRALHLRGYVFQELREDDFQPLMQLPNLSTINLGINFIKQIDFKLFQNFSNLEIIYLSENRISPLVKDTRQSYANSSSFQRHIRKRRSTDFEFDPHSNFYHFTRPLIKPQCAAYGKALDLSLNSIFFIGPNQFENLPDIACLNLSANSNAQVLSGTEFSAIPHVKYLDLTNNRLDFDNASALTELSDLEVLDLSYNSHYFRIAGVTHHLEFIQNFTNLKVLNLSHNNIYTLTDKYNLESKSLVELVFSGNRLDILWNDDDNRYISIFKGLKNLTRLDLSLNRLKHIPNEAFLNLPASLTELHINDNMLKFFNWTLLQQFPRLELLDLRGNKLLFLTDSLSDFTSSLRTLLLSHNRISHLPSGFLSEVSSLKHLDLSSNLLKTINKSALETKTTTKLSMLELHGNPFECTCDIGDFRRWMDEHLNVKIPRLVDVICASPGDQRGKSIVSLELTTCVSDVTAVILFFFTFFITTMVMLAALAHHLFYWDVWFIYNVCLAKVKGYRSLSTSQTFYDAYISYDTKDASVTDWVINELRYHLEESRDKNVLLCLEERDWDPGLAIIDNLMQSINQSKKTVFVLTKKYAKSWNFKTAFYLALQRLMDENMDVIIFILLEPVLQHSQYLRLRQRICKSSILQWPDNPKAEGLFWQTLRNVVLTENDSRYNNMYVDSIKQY

Toll-like receptor 7 = molecular target: T2, Toll-like receptor 7 (Homo sapiens, UniProt Q9NYK1); assay: Agonist activity at human TLR7 transfected in HEK-Blue hTLR7 cells; format: cell-based
T2 sequence (Q9NYK1 whole entry): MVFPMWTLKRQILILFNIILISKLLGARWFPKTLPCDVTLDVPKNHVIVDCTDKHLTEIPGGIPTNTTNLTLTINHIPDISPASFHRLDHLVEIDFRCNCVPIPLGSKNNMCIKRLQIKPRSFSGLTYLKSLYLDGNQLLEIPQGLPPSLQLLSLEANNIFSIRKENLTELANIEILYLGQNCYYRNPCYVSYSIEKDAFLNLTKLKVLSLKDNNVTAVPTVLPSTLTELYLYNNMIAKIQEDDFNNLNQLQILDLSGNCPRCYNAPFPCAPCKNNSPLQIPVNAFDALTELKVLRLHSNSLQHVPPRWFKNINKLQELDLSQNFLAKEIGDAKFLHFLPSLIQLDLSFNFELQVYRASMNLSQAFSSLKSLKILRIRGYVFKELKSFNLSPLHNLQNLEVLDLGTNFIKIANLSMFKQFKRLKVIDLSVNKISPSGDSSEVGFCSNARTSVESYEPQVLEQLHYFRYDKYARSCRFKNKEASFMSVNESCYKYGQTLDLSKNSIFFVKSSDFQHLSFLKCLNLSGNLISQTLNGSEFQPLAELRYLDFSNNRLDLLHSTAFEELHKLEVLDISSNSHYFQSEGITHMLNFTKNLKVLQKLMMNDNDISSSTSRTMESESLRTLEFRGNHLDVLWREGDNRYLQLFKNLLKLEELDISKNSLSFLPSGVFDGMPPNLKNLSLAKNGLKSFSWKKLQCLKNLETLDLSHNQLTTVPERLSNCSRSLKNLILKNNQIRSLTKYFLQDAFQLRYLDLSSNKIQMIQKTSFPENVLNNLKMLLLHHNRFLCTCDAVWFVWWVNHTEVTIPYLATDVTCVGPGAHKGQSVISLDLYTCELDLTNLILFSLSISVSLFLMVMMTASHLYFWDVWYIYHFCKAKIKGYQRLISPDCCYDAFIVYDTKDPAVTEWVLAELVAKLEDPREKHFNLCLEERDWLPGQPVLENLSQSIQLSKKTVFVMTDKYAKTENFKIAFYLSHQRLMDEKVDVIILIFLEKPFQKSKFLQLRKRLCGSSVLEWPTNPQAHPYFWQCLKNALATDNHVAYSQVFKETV

Toll-like receptor 8 [4] = molecular target: T1, Toll-like receptor 8; assay: Agonist activity at human TLR8 transfected in HEK-Blue hTLR8 cells; format: cell-based
Toll-like receptor 8 [5] = molecular target: T1, Toll-like receptor 8; assay: Agonist activity in TLR8 (unknown origin) expressed in HEK293 cells assessed as induction of NF-kappa activation; format: cell-based
[6] = molecular target: T3, Toll-like receptor 8 (Homo sapiens) (UniProt Q9NR97); assay: as §1; settings: filed as agonist
T3 sequence (whole entry): T1 sequence (Q9NR97 whole entry)

Structure (SMILES): C=CCn1c(=O)n([C@@H]2O[C@H](CO)[C@@H](O)[C@H]2O)c2nc(N)[nH]c(=O)c21 [LOXORIBINE]
- Activity (B16): 96%

Structure (SMILES): COCCOc1nc(N)c2[nH]c(=O)n(Cc3ccccc3)c2n1
- Ratio (Mus musculus): 100
- Activity (Hepatitis C virus): 60%

Structure (SMILES): CCCCc1nc2c(N)nc3ccccc3c2s1
- EC50 (Toll-like receptor 8 [3]): 200 nM

The remaining lines, values ahead:

- Kd [1]: 98 nM
- Kd [2]: 212 nM
Structure (SMILES): Cc1cc(Nc2ncc3c(n2)N(C)C(=O)N(c2cc(NC(=O)c4cccc(C(F)(F)F)c4)ccc2C)C3)n(C)n1

- EC50 (Toll-like receptor 7): 15000 nM
- EC50 (Toll-like receptor 8 [4]): 30 nM
- EC50 (Toll-like receptor 8 [5]): 30 nM
Structure (SMILES): CCOC(=O)C1=Cc2ccc(-c3cccc(C#N)c3)cc2N=C(N)C1

- EC50 [6]: 1600 nM
Structure (SMILES): CCCCc1nc2c(N)nc3cc(C(=O)OC)ccc3c2n1CCCCCN
